The results in this text go back to PMC4039632 (Journal of molecular biology, 2013).

This test deals with T1, EngD (Endoglucanase D) (Clostridium cellulovorans, UniProt P28623).
T1 sequence (P28623 32-515): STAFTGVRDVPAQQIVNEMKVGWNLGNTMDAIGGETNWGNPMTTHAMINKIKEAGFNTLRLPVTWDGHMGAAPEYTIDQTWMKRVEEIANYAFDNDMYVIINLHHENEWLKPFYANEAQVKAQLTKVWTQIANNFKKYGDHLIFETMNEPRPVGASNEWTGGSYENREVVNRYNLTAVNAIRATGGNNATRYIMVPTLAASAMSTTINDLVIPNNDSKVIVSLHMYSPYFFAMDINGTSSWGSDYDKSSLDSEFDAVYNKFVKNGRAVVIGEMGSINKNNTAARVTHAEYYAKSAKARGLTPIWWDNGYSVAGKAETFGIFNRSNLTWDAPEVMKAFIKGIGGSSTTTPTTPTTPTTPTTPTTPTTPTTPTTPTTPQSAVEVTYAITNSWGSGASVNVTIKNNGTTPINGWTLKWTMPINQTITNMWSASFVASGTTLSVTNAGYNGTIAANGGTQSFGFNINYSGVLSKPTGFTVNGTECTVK
In words: HPLC of hydrolysis products. To be noted: 2 mM substrate, 100 mM sodium citrate pH 5.0, 37 °C, 30 min. Format: biochemical.

Turning to `OC[C@H]1O[C@@H](O[C@H]2[C@H](O)[C@@H](O)[C@H](O[C@H]3[C@H](O)[C@@H](O)[C@H](O[C@H]4[C@H](O)[C@@H](O)[C@H](O[C@H]5[C@H](O)[C@@H](O)[C@H](O[C@H]6[C@H](O)[C@@H](O)C(O)O[C@@H]6CO)O[C@@H]5CO)O[C@@H]4CO)O[C@@H]3CO)O[C@@H]2CO)[C@H](O)[C@@H](O)[C@@H]1O` (stereo partly shown) [G6, cellohexaose], the “HPLC of hydrolysis products” value is “Wild type EngD produced an equal amount cellotriose and cellobiose in the degradation of cellohexaose”.
